This note sets out measurements from ChEMBL document CHEMBL5030568, “Design and Evaluation of Bispidine-Based SARS-CoV-2 Main Protease Inhibitors” (ACS Med Chem Lett, 2022).

One assay deals with HEK-293T. Put plainly: Cytotoxicity against human HEK293T cells assessed as reduction in cell viability. It is filed as cell-based.
Assay [1] in a line: Inhibition of SARS coronavirus 2 3 main viral protease 3-chymotrypsin-like activity expressed in Escherichia coli using Dabcyl-VNSTLQSGLRK(FAM)MA as substrate measured by fluorescence intensity assay. Details: species or system Severe acute respiratory syndrome coronavirus 2.

Where only a bound is given, the exact number is not on record here.

`CC12CNCC(C)(CNC1)C2=O`: the figures for the IC50 (with HEK-293T; in assay [1]) were > 1000 µM and 2.6 µM, respectively.

Turning to `Cn1nc(C(=O)N2CC3(C)CN(C(=O)c4cc(-c5cccs5)n(C)n4)CC(C)(C2)C3=O)cc1-c1cccs1`, the IC50 amounted to 456 µM in the assay on HEK-293T and 4.99 µM in assay [1].

For `CC(C)Cc1ccc(C(C)C(=O)O)cc1` (stereo not given) [IBUPROFEN], the 50% inhibitory concentration (IC50) in assay [1] is > 500 µM.

Consider `C=CC(=O)N1CC2(C)CN(C(=O)C=C)CC(C)(C1)C2`, for which the IC50 is > 1000 µM in the assay on HEK-293T and 99.6 µM in assay [1].

`CC12CN(C(=O)/C=C/c3ccccc3)CC(C)(CN(C(=O)/C=C/c3ccccc3)C1)C2`: the values for the IC50 (with HEK-293T; in assay [1]) were 253 µM and 46.6 µM, respectively.

Consider `CC(C)(C)OC(=O)NCCn1cc(CN2CC3(C)CN(Cc4cn(CCNC(=O)OC(C)(C)C)nn4)CC(C)(C2)C3=O)nn1`, for which the figures for the IC50 (in the assay on HEK-293T; in assay [1]) were 410 µM and 0.83 µM, respectively.

For the compound `CC(=O)N1CC2(C)CN(C(C)=O)CC(C)(C1)C2=O`, the IC50 in the assay with HEK-293T is > 1000 µM; in assay [1], 18.5 µM.

As to `Cn1nc(C(=O)N2CC3(C)CN(C(=O)c4nn(C)c5c4CCc4ccccc4-5)CC(C)(C2)C3=O)c2c1-c1ccccc1CC2`, the IC50 in the assay with HEK-293T is > 800 µM; in assay [1], 0.75 µM.

In the case of `CC(C)(C)OC(=O)Cn1cc(CN2CC3(C)CN(Cc4cn(CC(=O)OC(C)(C)C)nn4)CC(C)(C2)C3=O)nn1`, the values for the IC50 (in the assay with HEK-293T; in assay [1]) were 465 µM and 2.02 µM, respectively.

In the case of `Cc1cc(CN2CC3(C)CN(Cc4cc(C)no4)CC(C)(C2)C3=O)on1`, the IC50 in the assay on HEK-293T is > 700 µM; in assay [1], 5.2 µM.

For `CCOC(=O)c1cc(-n2cc(CN3CC4(C)CN(Cc5cn(-c6cc(C(=O)OCC)n[nH]6)nn5)CC(C)(C3)C4=O)nn2)[nH]n1`, in assay [1], the concentration for half-maximal inhibition (IC50) amounted to 13.6 µM.

For the compound `C#CC(=O)N1CC2(C)CN(C(=O)C#C)CC(C)(C1)C2=O`, the results for the IC50 (in the assay with HEK-293T; in assay [1]) were 57.3 µM and 5.5 µM, respectively.

With `CC12CN(C(=O)OC(C)(C)C)CC(C)(CN(C(=O)OC(C)(C)C)C1)C2`, the half-inhibitory concentration (IC50) in the assay on HEK-293T came to 302 µM; in assay [1] it was 17.9 µM.

With `CC12CN(CCN(CC(=O)O)CC(=O)O)CC(C)(CN(CCN(C(=O)O)C(=O)O)C1)C2=O`, the IC50 in the assay on HEK-293T was determined as 257 µM; in assay [1], 33.7 µM.

Take `CCOC(=O)c1n[nH]cc1-n1cc(CN2CC3(C)CN(Cc4cn(-c5c[nH]nc5C(=O)OCC)nn4)CC(C)(C2)C3=O)nn1`: the IC50 was > 700 µM in the assay with HEK-293T and 16.3 µM in assay [1].

Regarding `CC12CN(CC(=O)O)CC(C)(CN(CC(=O)O)C1)C2=O`, the values for the IC50 (in the assay with HEK-293T; in assay [1]) were > 1000 µM and 7.1 µM, respectively.

On to `CC(C)(C)OC(=O)N1CC2(C)CN(C(=O)OC(C)(C)C)CC(C)(C1)C2=O`, for which the IC50 is > 1000 µM with HEK-293T and 5.9 µM in assay [1].

For `CC12CN(CC#N)CC(C)(CN(CC#N)C1)C2=O`, the IC50 in the assay on HEK-293T is > 700 µM; in assay [1], 5.5 µM.

Take `CC12CN(C(=O)/C=C/c3ccccc3)CC(C)(CN(C(=O)/C=C/c3ccccc3)C1)C2=O`: the results for the IC50 (in the assay on HEK-293T; in assay [1]) were > 1000 µM and 4.8 µM, respectively.

For `CC12CN(Cc3ccccc3)CC(C)(CN(Cc3ccccc3)C1)C2=O`, the IC50 in the assay with HEK-293T is 359 µM; in assay [1] it was 0.9 µM.

Turning to `CC12CN(C(=O)c3ccccc3)CC(C)(CN(C(=O)c3ccccc3)C1)C2=O`, the IC50 in the assay with HEK-293T came to 692 µM; in assay [1] it was 3.3 µM.

Consider `CC12CN(C(=O)c3cc(-c4ccccc4)n(-c4ccccc4)n3)CC(C)(CN(C(=O)c3cc(-c4ccccc4)n(-c4ccccc4)n3)C1)C2=O`, for which the IC50 with HEK-293T was > 700 µM; in assay [1], 1.4 µM.

As to `Cn1nc(C(=O)N2CC3(C)CN(C(=O)c4cc(-c5ccccc5)n(C)n4)CC(C)(C2)C3=O)cc1-c1ccccc1`, the IC50 is > 900 µM with HEK-293T and 1.45 µM in assay [1].

Turning to `C#CCN1CC2(C)CN(CC#C)CC(C)(C1)C2=O`, the IC50 in the assay on HEK-293T was > 1000 µM; in assay [1], 8.8 µM.

Regarding `CC12CN(Cc3cn(Cc4ccccc4)nn3)CC(C)(CN(Cc3cn(Cc4ccccc4)nn3)C1)C2=O`, the results for the IC50 (in the assay with HEK-293T; in assay [1]) were 560 µM and 2.2 µM, respectively.

Consider `Cn1nc(C(=O)N2CC3(C)CN(C(=O)c4nn(C)c5c4Cc4ccccc4-5)CC(C)(C2)C3=O)c2c1-c1ccccc1C2`, for which the IC50 in the assay on HEK-293T was > 800 µM; in assay [1], 13 µM.

As a reminder, the IC50 is the concentration that inhibits the measured activity by half.
